Assays:
PBR [1] = biological target: T1, PBR (Homo sapiens, UniProt P30536); assay: Fluorescent microscopy with compound 4 fluorescent PBR ligand, cultured cells; format: cell-based; parameters: endogenous in cells; host or cells: MDA-231, MCF-7 and MCF-7ADR (ADR) human breast cancer cells, whole cells or isolated nuclei; conditions: MDA-231 cells, 100 uM competitor, 1 uM compound 4, 45 min at 37° C.
Method: Fluorescent Microscopy with the compound 4 fluorescent PBR Ligand—MA-10, MDA-231, MCF-7, and ADR cells were grown on glass coverslips as previously described [Kozikowski et al. (1997) J. Med. Chem. 40: 2435-2439]. Cells were then washed twice with sterile PBS and incubated for 45 min with 1 uM compound 4, a fluorescent derivative of the PBR ligand FGIN-27, with or without a competing PBR ligand, FGIN-27, at a concentration of 100 uM. After the incubation period, the cells were washed with PBS and examined by fluorescent microscopy using an Olympus BH-2 fluorescence microscope.
Target sequence in this assay (P30536 2-169): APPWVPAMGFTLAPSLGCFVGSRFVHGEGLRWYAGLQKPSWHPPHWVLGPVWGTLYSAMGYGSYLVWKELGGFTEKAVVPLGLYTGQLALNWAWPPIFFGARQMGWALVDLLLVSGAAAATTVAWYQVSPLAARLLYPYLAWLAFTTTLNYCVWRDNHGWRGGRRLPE

PBR [2] = biological target: T1, PBR; assay: Compound 4 fluorescence labeling of human breast tissue biopsies; parameters: Paraffin embedded sections of normal breast tissue; from tissue; host or cells: human breast biopsies (normal tissue and aggressive carcinoma), Lombardi Cancer Center; conditions: 1000 fold excess of competitive ligand
Target sequence in this assay (P30536 whole entry): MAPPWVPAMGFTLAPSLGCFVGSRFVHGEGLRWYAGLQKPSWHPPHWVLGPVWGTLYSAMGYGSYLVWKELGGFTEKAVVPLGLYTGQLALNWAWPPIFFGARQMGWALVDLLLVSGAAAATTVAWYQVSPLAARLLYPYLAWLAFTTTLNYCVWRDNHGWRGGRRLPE
Method: PBR ligand binding activity was determined using the fluorescent PBR derivative compound 4 [Munson, 1980, supra]
In some samples, the hematoxylin counterstaining was omitted in order to confirm the PBR positive staining of the nuclei of breast carcinoma cells (b). […] In this experiment an FITC-coupled secondary antibody was used to localize the immunoreactive PBR protein. […] PBR ligand binding activity was also determined in the aggressive breast carcinomas using the fluorescent PBR derivative compound 4 (FIG. 10e).

MDA-231 cells = assay: BrdU cell proliferation ELISA; format: cell-based, human; conditions: for stimulation of MDA-231 cell proliferation: 48 h
Method: BrdU Cell Proliferation Assays and BrdU-labeling of MDA-231 Cells—MDA-231 cells were plated on 96-well plates (Corning) at a concentration of approximately 10,000 cells/well (24 h incubation) or approximately 5,000 cells/well (48 h incubation) in DMEM supplemented with 0.1% FBS.

[3] = biological target: T2, peripheral-type benzodiazepine receptor (PBR) (Homo sapiens, UniProt P30536); assay: [3H]PK11195 binding to isolated nuclei (Scatchard analysis); conditions: pmol/mg nuclear protein
T2 construct: Cells were scraped from 150 mm culture dishes into 5 ml phosphate buffered saline (PBS); endogenous in cells; host or cells: MDA-231, MCF-7 and MCF-7ADR (ADR) human breast cancer cells, whole cells or isolated nuclei
Method: (§1) Radioligand Binding Assays—Cells were scraped from 150 mm culture dishes into 5 ml phosphate buffered saline (PBS), dispersed by trituration, and centrifuged at 500×g for 15 min. Cell pellets were resuspended in PBS and assayed for protein concentration. […] Scatchard plots were analyzed by the LIGAND program [Munson, (1980) Anal. Biochem. 107:220]. […] IC50 estimation was performed using the LIGAND program (Munson, 1980, supra).
(§2) Nuclear Uptake of ^3H-Cholesterol—Nuclei were isolated from MDA-231, MCF-7, and as described by Elango et al (1997). […] Samples were then centrifuged at 500×g for 30 min and pellets were washed in […] ice-cold PBS. After a second centrifugation at 500×g for 30 min, 200 ul 1.0 N NaOH was then added to the pellets and incubated overnight at 37° C. After incubation, 200 ul 1.0 N HCl was added and samples were vigorously vortexed. 3 ml scintillation cocktail (Eco-Lite) was then added prior to reading radioactivity on a Wallac 1409 Liquid Scintillation Counter.

MDA-231 nuclei = assay: Nuclear uptake of 3H-cholesterol, MDA-231 nuclei; format: biochemical, human; conditions: -8 to -6M PK11195, MDA-231 nuclei, 60 min at 37° C.
Method: as §2

[4] = biological target: T2, peripheral-type benzodiazepine receptor (PBR); assay: [3H]PK11195 radioligand binding to whole cells (Scatchard analysis, competition); conditions: 50 μg protein, [3H]PK11195, Scatchard plot
Method: as §1

MCF-7 nuclei = assay: Nuclear uptake of 3H-cholesterol, MCF-7 nuclei; format: biochemical, human; conditions: increasing concentrations of PK11195
Method: as §2

T2 sequence (P30536 2-169): as the sequence (P30536 2-169) above

Structure (SMILES) | displacement of compound 4 fluorescent binding (PBR [1]) | displacement of compound 4 fluorescence (PBR [2]; aggressive breast carcinoma biopsies) | displacement of compound 4 fluorescence (PBR [2]; normal human breast tissue) | effect on MDA-231 cell proliferation (MDA-231 cells; 24 h, −10 and −9M) | stimulation of MDA-231 cell proliferation (MDA-231 cells; any of the micromolar concentrations) | stimulation of MDA-231 cell proliferation (MDA-231 cells; −8M) | Emax (MDA-231 cells; Homo sapiens, MDA-MB-231, 24 h, −5M, read-out: maximal stimulation of MDA-231 cell proliferation) | toxicity to MDA-231 cells (MDA-231 cells; −4M) | Bmax ([3]; nuclei isolated from MCF-7 cells) | Bmax ([3]; nuclei isolated from MDA-231 cells) | decrease in the amount of cholesterol uptake (MDA-231 nuclei) | Bmax ([4]; ADR (MCF-7ADR) cells) | Bmax ([4]; MDA-231 cells) | response of cholesterol uptake to PK11195 dose-response (MCF-7 nuclei)
CCCCCCN(CCCCCC)C(=O)Cc1c(-c2ccc(F)cc2)[nH]c2ccccc12 [FGIN-27] | displacement of fluorescent binding |  |  |  |  |  |  |  |  |  |  |  |  | 
CCC(C)N(C)C(=O)c1cc2ccccc2c(-c2ccccc2Cl)n1 (centres unmarked) [PK11195] |  | completely displaced the fluorescence | completely displaced the fluorescence | no effect | no stimulation | 40% | 40% | toxic concentration | 0.4±0.2 pmol/mg protein | 6.9±4.8 pmol/mg protein | ~20% | 1.3±0.23 pmol/mg protein | 8.7±1.4 pmol/mg protein | failed to respond

— patent US7267977B2, “Peripheral-type benzodiazepine receptor: a tool for detection, diagnosis, prognosis, and treatment of cancer” (Georgetown University, priority 1998, dated 2007)
